Test results reported in ChEMBL document CHEMBL6127100, “Plant based steroidal and triterpenoid sapogenins: Chemistry on diosgenin and biological aspects” (Eur J Med Chem, 2024).

Assays:
Assay type in all cases: functional, cell-based
[1] = tested on: A549; assay: Antiproliferative activity against human A549 cells assessed as reduction in cells assessed as reduction in cell growth incubated for 72 hrs by MTT assay; conditions: A549, 72 h
[2] = tested on: A-431; assay: Antiproliferative activity against human A-431 cells assessed as reduction in cells assessed as reduction in cell growth incubated for 72 hrs by MTT assay; conditions: A-431, 72 h
[3] = tested on: NCI-H1975; assay: Antiproliferative activity against human NCI-H1975 cells assessed as reduction in cells assessed as reduction in cell growth incubated for 72 hrs by MTT assay; conditions: NCI-H1975, 72 h
[4] = tested on: HCT-116; assay: Antiproliferative activity against human HCT-116 cells assessed as reduction in cells assessed as reduction in cell growth incubated for 72 hrs by MTT assay; conditions: HCT-116, 72 h
[5] = tested on: ASPC1; assay: Antiproliferative activity against human ASPC1 cells assessed as reduction in cells assessed as reduction in cell growth incubated for 72 hrs by MTT assay; conditions: ASPC1, 72 h
[6] = tested on: HepG2; assay: Antiproliferative activity against human HepG2 cells assessed as reduction in cell viability measured for 24 hrs by MTT assay; conditions: HepG2, 24 h
[7] = tested on: HeLa; assay: Antiproliferative activity against human HeLa cells assessed as reduction in cell viability measured for 24 hrs by MTT assay

| SMILES | IC50 [1] [µM] | IC50 [2] [µM] | IC50 [3] [µM] | IC50 [4] [µM] | IC50 [5] [µM] | IC50 [6] [µM] | IC50 [7] [µM] |
| --- | --- | --- | --- | --- | --- | --- | --- |
| C[C@@H]1CC[C@@]2(OC1)O[C@H]1C[C@H]3[C@@H]4CC=C5C[C@@H]([N+](C)(C)C)CC[C@]5(C)[C@H]4CC[C@]3(C)[C@H]1[C@@H]2C | 15.2 | 6.38 | 19 | 9.67 | 9.44 | – | – |
| C[C@@H]1CC[C@@]2(OC1)O[C@H]1C[C@H]3[C@@H]4CC=C5C[C@@H](OC(=O)CCCC[N+](C)(C)c6ccccc6)CC[C@]5(C)[C@H]4CC[C@]3(C)[C@H]1[C@@H]2C | 6.63 | 3.52 | 4.05 | – | 4.18 | – | – |
| C[C@@H]1CC[C@@]2(OC1)O[C@H]1C[C@H]3[C@@H]4CC=C5C[C@@H](OC(=O)CCCC[N+]6(C)CCCC6)CC[C@]5(C)[C@H]4CC[C@]3(C)[C@H]1[C@@H]2C | 4.47 | 4.05 | 3.44 | – | 2.15 | – | – |
| C[C@@H]1CC[C@@]2(OC1)O[C@H]1C[C@H]3[C@@H]4CC=C5C[C@@H]([N+](C)(CCCCN6C(=O)c7ccccc7C6=O)CCCCN6C(=O)c7ccccc7C6=O)CC[C@]5(C)[C@H]4CC[C@]3(C)[C@H]1[C@@H]2C | 10.7 | 4.33 | 9.17 | 3.23 | 4.78 | – | – |
| C=C[N+](C)(C=C)[C@H]1CC[C@@]2(C)C(=CC[C@H]3[C@@H]4C[C@@H]5O[C@]6(CC[C@@H](C)CO6)[C@@H](C)[C@@H]5[C@@]4(C)CC[C@@H]32)C1 | 6.64 | 4.01 | 5.96 | 5 | 4.06 | – | – |
| C[C@@H]1CC[C@@]2(OC1)O[C@H]1C[C@H]3[C@@H]4CC=C5C[C@@H]([N+](C)(CC6CC6)CC6CC6)CC[C@]5(C)[C@H]4CC[C@]3(C)[C@H]1[C@@H]2C | 2.69 | 4.71 | 5.32 | 1.12 | 4.07 | – | – |
| C[C@H](CC[C@H]1O[C@H]2C[C@H]3[C@@H]4CC=C5C[C@@H](OC6=C(Cl)C(=O)c7ccccc7C6=O)CC[C@]5(C)[C@H]4CC[C@]3(C)[C@H]2[C@@H]1C)CO[Si](C)(C)C(C)(C)C | – | – | – | – | – | 3.52 | 9.69 |
| CCCC[N+](C)(C)CCCCC(=O)O[C@H]1CC[C@@]2(C)C(=CC[C@H]3[C@@H]4C[C@@H]5O[C@]6(CC[C@@H](C)CO6)[C@@H](C)[C@@H]5[C@@]4(C)CC[C@@H]32)C1 | 2.81 | 3.11 | 3.68 | – | 2.77 | – | – |
| C[C@@H]1CC[C@@]2(OC1)O[C@H]1C[C@H]3[C@@H]4CC=C5C[C@@H](OC(=O)CCCC[N+](C)(C)Cc6ccccc6)CC[C@]5(C)[C@H]4CC[C@]3(C)[C@H]1[C@@H]2C | 5.3 | 1.85 | 1.51 | – | 7.12 | – | – |
| C[C@@H]1CC[C@@]2(OC1)O[C@H]1C[C@H]3[C@@H]4CC=C5C[C@@H]([N+](C)(C/C=C/c6ccccc6)C/C=C/c6ccccc6)CC[C@]5(C)[C@H]4CC[C@]3(C)[C@H]1[C@@H]2C | 9.86 | < 2.5 | 5.73 | 0.34 | < 5 | – | – |
| C[C@@H]1CC[C@@]2(OC1)O[C@H]1C[C@H]3[C@@H]4CC=C5C[C@@H]([N+](C)(CCO)CCO)CC[C@]5(C)[C@H]4CC[C@]3(C)[C@H]1[C@@H]2C | 5.35 | 3.26 | – | 11.5 | 17.8 | – | – |
| CCCC[N+](C)(CCCC)[C@H]1CC[C@@]2(C)C(=CC[C@H]3[C@@H]4C[C@@H]5O[C@]6(CC[C@@H](C)CO6)[C@@H](C)[C@@H]5[C@@]4(C)CC[C@@H]32)C1 | 2.42 | 3.87 | 6.39 | 1.03 | < 5 | – | – |
| C[C@@H]1CC[C@@]2(OC1)O[C@H]1C[C@H]3[C@@H]4CC=C5C[C@@H]([N+]6(C)CCCC6)CC[C@]5(C)[C@H]4CC[C@]3(C)[C@H]1[C@@H]2C | 10.5 | 10.4 | 11.2 | 3.94 | 5.54 | – | – |
| COCC[N+](C)(CCOC)[C@H]1CC[C@@]2(C)C(=CC[C@H]3[C@@H]4C[C@@H]5O[C@]6(CC[C@@H](C)CO6)[C@@H](C)[C@@H]5[C@@]4(C)CC[C@@H]32)C1 | 6.33 | 2.85 | 5.09 | > 1 | 55.3 | – | – |
| C[C@@H](CO)CC[C@H]1O[C@H]2C[C@H]3[C@@H]4CC=C5C[C@@H](OC6=C(Cl)C(=O)c7ccccc7C6=O)CC[C@]5(C)[C@H]4CC[C@]3(C)[C@H]2[C@@H]1C | – | – | – | – | – | 3.85 | 3.7 |
| C[C@@H]1CC[C@@]2(OC1)O[C@H]1C[C@H]3[C@@H]4CC=C5C[C@@H](OC(=O)CCCC[N+]67CCC(CC6)C(O)C7)CC[C@]5(C)[C@H]4CC[C@]3(C)[C@H]1[C@@H]2C (some centres not stated) | 4.07 | 4.14 | 1.68 | – | 4.46 | – | – |
| Cc1ccc2c(n1)C(=O)C(Cl)=C(O[C@H]1CC[C@@]3(C)C(=CC[C@H]4[C@@H]5C[C@@H]6O[C@H](CC[C@@H](C)CO[Si](C)(C)C(C)(C)C)[C@@H](C)[C@@H]6[C@@]5(C)CC[C@@H]43)C1)C2=O | – | – | – | – | – | 3.55 | 9.69 |
| Cc1ccc2c(c1)C(=O)C(Cl)=C(OC[C@H](C)CC[C@H]1O[C@H]3C[C@H]4[C@@H]5CC=C6C[C@@H](OC7=C(Cl)C(=O)c8cc(C)ccc8C7=O)CC[C@]6(C)[C@H]5CC[C@]4(C)[C@H]3[C@@H]1C)C2=O | – | – | – | – | – | 9.18 | 14.5 |
| C[C@@H]1CC[C@@]2(OC1)O[C@H]1C[C@H]3[C@@H]4CC=C5C[C@@H](OC(=O)CCCC[N+]6(C)CCOCC6)CC[C@]5(C)[C@H]4CC[C@]3(C)[C@H]1[C@@H]2C | 5.83 | 5.88 | 5.45 | – | 8.48 | – | – |
| C#CC[N+](C)(CC#C)[C@H]1CC[C@@]2(C)C(=CC[C@H]3[C@@H]4C[C@@H]5O[C@]6(CC[C@@H](C)CO6)[C@@H](C)[C@@H]5[C@@]4(C)CC[C@@H]32)C1 | 12.7 | 14.5 | 5.92 | 4.71 | 4.41 | – | – |
| C[C@@H]1CC[C@@]2(OC1)O[C@H]1C[C@H]3[C@@H]4CC=C5C[C@@H](OC(=O)CCCC[N+]6(CCO)CCCCC6)CC[C@]5(C)[C@H]4CC[C@]3(C)[C@H]1[C@@H]2C | 4.68 | 4.14 | 1.68 | – | 6.07 | – | – |
| CC[N+](CC)(CC)CCCCC(=O)O[C@H]1CC[C@@]2(C)C(=CC[C@H]3[C@@H]4C[C@@H]5O[C@]6(CC[C@@H](C)CO6)[C@@H](C)[C@@H]5[C@@]4(C)CC[C@@H]32)C1 | 2.52 | 3.46 | 3.23 | – | 6.56 | – | – |
| C[C@H](CC[C@H]1O[C@H]2C[C@H]3[C@@H]4CC=C5C[C@@H](OC6=C(Cl)C(=O)c7ncccc7C6=O)CC[C@]5(C)[C@H]4CC[C@]3(C)[C@H]2[C@@H]1C)CO[Si](C)(C)C(C)(C)C | – | – | – | – | – | 12.2 | 12.4 |
| C[C@H](CC[C@H]1O[C@H]2C[C@H]3[C@@H]4CC=C5C[C@@H](OC6=C(Cl)C(=O)c7ccccc7C6=O)CC[C@]5(C)[C@H]4CC[C@]3(C)[C@H]2[C@@H]1C)COC1=C(Cl)C(=O)c2ccccc2C1=O | – | – | – | – | – | 1.76 | 6.27 |
| C[C@@H]1CC[C@@]2(OC1)O[C@H]1C[C@H]3[C@@H]4CC=C5C[C@@H]([N+](C)(C)CC#N)CC[C@]5(C)[C@H]4CC[C@]3(C)[C@H]1[C@@H]2C | – | 8.25 | 20.6 | 9.74 | 19.3 | – | – |
| C[C@@H]1CC[C@@]2(OC1)O[C@H]1C[C@H]3[C@@H]4CC=C5C[C@@H](OC(=O)CCCC[N+]6(CCO)CCOCC6)CC[C@]5(C)[C@H]4CC[C@]3(C)[C@H]1[C@@H]2C | 12.6 | 6.21 | 3.36 | – | 11.1 | – | – |
| C[C@@H](CO)CC[C@H]1O[C@H]2C[C@H]3[C@@H]4CC=C5C[C@@H](OC6=C(Cl)C(=O)c7ncccc7C6=O)CC[C@]5(C)[C@H]4CC[C@]3(C)[C@H]2[C@@H]1C | – | – | – | – | – | – | 6.36 |
| Cc1ccc2c(n1)C(=O)C(Cl)=C(O[C@H]1CC[C@@]3(C)C(=CC[C@H]4[C@@H]5C[C@@H]6O[C@H](CC[C@@H](C)CO)[C@@H](C)[C@@H]6[C@@]5(C)CC[C@@H]43)C1)C2=O | – | – | – | – | – | 5.36 | 15.6 |
| C=CC[N+](CC=C)(CC=C)CCCCC(=O)O[C@H]1CC[C@@]2(C)C(=CC[C@H]3[C@@H]4C[C@@H]5O[C@]6(CC[C@@H](C)CO6)[C@@H](C)[C@@H]5[C@@]4(C)CC[C@@H]32)C1 | 1.84 | 2.55 | 0.78 | – | 1.23 | – | – |
| C[C@@H]1CC[C@@]2(OC1)O[C@H]1C[C@H]3[C@@H]4CC=C5C[C@@H](OC(=O)CCCC[N+]6(C)CCCCC6)CC[C@]5(C)[C@H]4CC[C@]3(C)[C@H]1[C@@H]2C | 5.83 | 3.03 | 5.08 | – | 2.83 | – | – |
